Results as given in ChEMBL document CHEMBL5233266, “β-Carboline as a Privileged Scaffold for Multitarget Strategies in Alzheimer's Disease Therapy” (J Med Chem, 2021).
Several values for one entry are separate records, joined by “and”; a condition that tells them apart may be missing. Equal entries are not always repeated. Blank lines part the entries; values can stand above or below the molecule they belong to.

Assays:
[1] = target: cGMP-specific 3',5'-cyclic phosphodiesterase (Homo sapiens, UniProt O76074); experiment: Inhibition of PDE5 (unknown origin)
[2] = target: T1, Gamma-aminobutyric acid receptor subunit alpha-3 (Homo sapiens, UniProt P34903); experiment: Binding affinity to human recombinant GABAA alpha3 receptor assessed as inhibition constant incubated for 1 hrs by liquid scintillation counting analysis
T1 sequence (P34903 whole entry): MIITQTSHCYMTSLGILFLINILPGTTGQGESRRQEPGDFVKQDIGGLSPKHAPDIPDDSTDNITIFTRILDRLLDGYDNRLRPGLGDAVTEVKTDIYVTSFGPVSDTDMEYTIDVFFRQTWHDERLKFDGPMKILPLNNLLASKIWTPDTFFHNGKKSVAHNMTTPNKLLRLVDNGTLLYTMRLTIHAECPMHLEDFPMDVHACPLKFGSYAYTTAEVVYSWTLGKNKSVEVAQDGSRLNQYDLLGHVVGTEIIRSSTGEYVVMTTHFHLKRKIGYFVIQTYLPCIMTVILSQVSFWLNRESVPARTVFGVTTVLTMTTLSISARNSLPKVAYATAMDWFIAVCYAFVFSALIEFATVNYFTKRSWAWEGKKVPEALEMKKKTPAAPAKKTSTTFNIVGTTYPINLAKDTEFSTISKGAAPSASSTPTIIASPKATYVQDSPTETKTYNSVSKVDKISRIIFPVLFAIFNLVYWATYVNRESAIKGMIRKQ

[3] = target: Gamma-aminobutyric acid receptor subunit alpha-6 (Homo sapiens, UniProt Q16445); experiment: Binding affinity to human recombinant GABAA alpha6 receptor assessed as inhibition constant incubated for 1 hrs by liquid scintillation counting analysis
[4] = target: T2, Gamma-aminobutyric acid receptor subunit alpha-2 (Homo sapiens, UniProt P47869); experiment: Binding affinity to human recombinant GABAA alpha2 receptor assessed as inhibition constant incubated for 1 hrs by liquid scintillation counting analysis
T2 sequence (P47869 whole entry): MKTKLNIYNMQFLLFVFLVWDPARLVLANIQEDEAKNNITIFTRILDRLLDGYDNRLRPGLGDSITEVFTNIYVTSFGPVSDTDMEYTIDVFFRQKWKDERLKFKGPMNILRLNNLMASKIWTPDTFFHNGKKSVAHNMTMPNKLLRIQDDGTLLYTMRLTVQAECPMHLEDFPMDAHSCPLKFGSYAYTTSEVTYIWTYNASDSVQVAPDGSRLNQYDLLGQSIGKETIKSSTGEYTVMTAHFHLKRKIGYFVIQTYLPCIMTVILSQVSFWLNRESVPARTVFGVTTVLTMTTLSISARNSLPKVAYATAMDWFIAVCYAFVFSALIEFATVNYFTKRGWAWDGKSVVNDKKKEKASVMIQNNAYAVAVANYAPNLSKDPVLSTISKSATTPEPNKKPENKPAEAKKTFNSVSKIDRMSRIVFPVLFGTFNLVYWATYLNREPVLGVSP

[5] = target: T3, Gamma-aminobutyric acid receptor subunit alpha-5 (Homo sapiens, UniProt P31644); experiment: Binding affinity to human recombinant GABAA alpha5 receptor assessed as inhibition constant incubated for 1 hrs by liquid scintillation counting analysis
T3 sequence (P31644 whole entry): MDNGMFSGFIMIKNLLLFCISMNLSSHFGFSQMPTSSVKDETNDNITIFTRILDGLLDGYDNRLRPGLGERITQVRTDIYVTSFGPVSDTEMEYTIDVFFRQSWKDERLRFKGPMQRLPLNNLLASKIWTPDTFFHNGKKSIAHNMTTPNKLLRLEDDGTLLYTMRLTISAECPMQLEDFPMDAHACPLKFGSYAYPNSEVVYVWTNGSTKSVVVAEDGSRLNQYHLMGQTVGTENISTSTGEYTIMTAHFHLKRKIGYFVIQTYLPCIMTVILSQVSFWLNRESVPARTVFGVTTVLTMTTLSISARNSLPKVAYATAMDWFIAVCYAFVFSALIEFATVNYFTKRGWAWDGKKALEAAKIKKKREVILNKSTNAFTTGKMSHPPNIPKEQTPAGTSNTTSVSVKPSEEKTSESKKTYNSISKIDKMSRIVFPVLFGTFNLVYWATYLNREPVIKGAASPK

[6] = target: GABA-A receptor; anion channel; experiment: Displacement of [3H]flunitrazepam from GABAA (unknown origin ) receptor by radioligand binding assay; assay type: protein-complex assay, Homo sapiens
[7] = target: T4, Gamma-aminobutyric acid receptor subunit alpha-1 (Homo sapiens, UniProt P14867); experiment: Binding affinity to human recombinant GABAA alpha1 receptor assessed as inhibition constant incubated for 1 hrs by liquid scintillation counting analysis
T4 sequence (P14867 whole entry): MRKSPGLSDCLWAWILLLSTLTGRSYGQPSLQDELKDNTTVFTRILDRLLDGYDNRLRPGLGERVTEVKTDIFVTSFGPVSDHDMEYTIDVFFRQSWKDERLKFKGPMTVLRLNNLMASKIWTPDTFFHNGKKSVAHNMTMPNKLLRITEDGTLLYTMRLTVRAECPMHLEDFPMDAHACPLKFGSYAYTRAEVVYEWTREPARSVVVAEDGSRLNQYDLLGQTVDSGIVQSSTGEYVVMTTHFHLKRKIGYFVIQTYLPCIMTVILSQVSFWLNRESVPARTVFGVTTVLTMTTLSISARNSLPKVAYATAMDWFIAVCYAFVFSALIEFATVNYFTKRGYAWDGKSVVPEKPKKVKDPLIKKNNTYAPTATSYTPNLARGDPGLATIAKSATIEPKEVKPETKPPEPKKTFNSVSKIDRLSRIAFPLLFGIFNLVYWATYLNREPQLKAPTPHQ

[8] = target: Cholinesterase (Homo sapiens, UniProt P06276); experiment: Inhibition of BuChE (unknown origin)
[9] = target: Acetylcholinesterase (Homo sapiens, UniProt P22303); experiment: Inhibition of AChE (unknown origin)
Chain of Acetylcholinesterase (P22303 whole entry): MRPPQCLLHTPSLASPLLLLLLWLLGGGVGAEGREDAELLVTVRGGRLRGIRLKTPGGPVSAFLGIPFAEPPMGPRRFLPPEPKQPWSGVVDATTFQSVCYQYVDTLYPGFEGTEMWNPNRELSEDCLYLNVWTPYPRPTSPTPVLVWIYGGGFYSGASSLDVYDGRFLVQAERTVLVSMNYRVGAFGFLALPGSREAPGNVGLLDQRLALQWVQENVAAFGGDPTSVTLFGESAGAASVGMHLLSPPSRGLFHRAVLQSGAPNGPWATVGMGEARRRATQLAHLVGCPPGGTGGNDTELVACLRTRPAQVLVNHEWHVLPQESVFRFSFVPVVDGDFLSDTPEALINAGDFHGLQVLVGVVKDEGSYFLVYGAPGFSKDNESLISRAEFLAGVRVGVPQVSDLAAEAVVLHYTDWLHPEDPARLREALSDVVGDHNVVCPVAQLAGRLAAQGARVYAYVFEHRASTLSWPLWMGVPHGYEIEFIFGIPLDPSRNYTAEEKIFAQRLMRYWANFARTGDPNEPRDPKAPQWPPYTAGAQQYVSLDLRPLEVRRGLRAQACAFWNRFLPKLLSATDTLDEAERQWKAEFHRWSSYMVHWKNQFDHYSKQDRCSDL

Chain of Gamma-aminobutyric acid receptor subunit alpha-6 (Q16445 whole entry): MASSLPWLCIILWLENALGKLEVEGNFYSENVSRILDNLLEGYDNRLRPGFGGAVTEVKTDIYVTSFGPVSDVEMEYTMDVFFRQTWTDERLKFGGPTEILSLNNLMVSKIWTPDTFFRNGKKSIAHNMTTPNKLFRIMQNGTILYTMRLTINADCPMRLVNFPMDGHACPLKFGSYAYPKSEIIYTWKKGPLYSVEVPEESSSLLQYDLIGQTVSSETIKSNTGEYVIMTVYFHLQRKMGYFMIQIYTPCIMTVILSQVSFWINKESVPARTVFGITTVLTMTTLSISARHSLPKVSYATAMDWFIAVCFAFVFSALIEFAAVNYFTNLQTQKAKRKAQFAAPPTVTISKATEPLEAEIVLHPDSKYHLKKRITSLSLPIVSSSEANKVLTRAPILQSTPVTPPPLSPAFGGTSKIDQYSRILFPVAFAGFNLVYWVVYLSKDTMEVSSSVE
Chain of Cholinesterase (P06276 whole entry): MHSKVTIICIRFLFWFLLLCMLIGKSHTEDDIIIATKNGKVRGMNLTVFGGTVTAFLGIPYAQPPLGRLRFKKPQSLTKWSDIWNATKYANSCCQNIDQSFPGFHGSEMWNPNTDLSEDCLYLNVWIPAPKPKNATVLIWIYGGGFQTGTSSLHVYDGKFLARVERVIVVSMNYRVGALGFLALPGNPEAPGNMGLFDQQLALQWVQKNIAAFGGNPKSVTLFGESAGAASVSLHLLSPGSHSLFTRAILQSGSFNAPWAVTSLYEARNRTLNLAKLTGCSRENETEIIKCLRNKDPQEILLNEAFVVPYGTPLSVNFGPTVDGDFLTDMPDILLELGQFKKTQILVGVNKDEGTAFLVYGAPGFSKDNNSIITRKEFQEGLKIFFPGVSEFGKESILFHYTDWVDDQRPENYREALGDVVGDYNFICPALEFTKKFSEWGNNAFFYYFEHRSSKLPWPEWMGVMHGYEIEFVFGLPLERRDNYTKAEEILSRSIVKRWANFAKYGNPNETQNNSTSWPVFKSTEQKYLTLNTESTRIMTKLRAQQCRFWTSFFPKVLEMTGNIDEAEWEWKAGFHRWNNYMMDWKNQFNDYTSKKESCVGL

Structure (SMILES): CCOC(=O)c1ncc2[nH]c3ccc(OCc4ccccc4)cc3c2c1COC
Ki [2]: 6 nM
Ki [3]: > 1000 nM
Ki [4]: 4 nM
Ki [5]: 5 nM
IC50 [6]: 0.5 nM
Ki [7]: 4 nM

Structure (SMILES): CCOC(=O)c1nc(C)c2[nH]c3cc(OC)c(OC)cc3c2c1CC
Ki [2]: 4 nM
Ki [3]: 75 nM
Ki [4]: 19 nM
Ki [5]: 3 nM
Ki [7]: 6 nM

Structure (SMILES): CCCOC(=O)c1cc2c(cn1)[nH]c1ccccc12
IC50 [6]: 1 nM

Structure (SMILES): Cn1c2ccccc2c2cc[n+](-c3ccc(Cl)cc3)cc21
IC50 [8]: 32000 nM and 116000 nM
IC50 [9]: 560 nM and 300 nM

Structure (SMILES): CC(C)(C)COC(=O)c1cc2c(cn1)[nH]c1ccccc12
IC50 [6]: 750 nM

Structure (SMILES): COC(=O)c1cc2c(cn1)[nH]c1ccc(NCc3ccccc3)cc12
Ki [2]: 49 nM
Ki [3]: > 10000 nM
Ki [4]: 30 nM
Ki [5]: 480 nM
IC50 [6]: 4 nM
Ki [7]: 5 nM

Structure (SMILES): CCOC(=O)c1ncc2[nH]c3ccc(OC)cc3c2c1COC
Ki [2]: 2 nM
Ki [4]: 1 nM
Ki [5]: 4 nM
IC50 [6]: 0.5 nM
Ki [7]: 0.1 nM

Structure (SMILES): COc1ccc([C@@H]2N[C@@H](C(=O)O)Cc3c2n(C)c2ccccc32)cc1OC
IC50 [9]: 2500 nM

Structure (SMILES): O=C1[C@@H]2Cc3c([nH]c4ccccc34)[C@@H](c3ccc4c(c3)OCO4)N2C(=O)CN1CCC1CCN(Cc2ccccc2)CC1
IC50 [1]: 1500 nM
IC50 [9]: 32 nM

Structure (SMILES): CCOC(=O)c1ncc2[nH]c3cccc(OC(C)C)c3c2c1C
IC50 [6]: 0.4 nM

Structure (SMILES): COC(=O)c1cc2c(cn1)[nH]c1ccc(O)cc12
IC50 [6]: 4 nM

Structure (SMILES): CCOC(=O)c1ncc2[nH]c3cccc(OCc4ccccc4)c3c2c1COC
IC50 [6]: 0.2 nM

Structure (SMILES): CCCOc1ccc2[nH]c3cnc(C(=O)OCC)c(COC)c3c2c1
Ki [2]: 2 nM
Ki [3]: 1300 nM
Ki [4]: 1 nM
Ki [5]: 2 nM
IC50 [6]: 0.5 nM
Ki [7]: 0.5 nM

Structure (SMILES): CCc1c(C(=O)OC)nc(C)c2[nH]c3cc(OC)c(OC)cc3c12
Ki [2]: 4 nM
Ki [3]: 130 nM
Ki [4]: 8 nM
Ki [5]: 1 nM
Ki [7]: 6 nM

Results, then the molecule that gave them:

IC50 [1]: 170 nM
Structure (SMILES): CCN1C(=O)[C@H]2Cc3c([nH]c4ccccc34)[C@@H](c3ccc(Br)s3)N2C1=O

IC50 [1]: 16 nM
Structure (SMILES): COc1ccc(N2CC(=O)N3[C@H](c4ccc5c(c4)OCO5)c4[nH]c5ccccc5c4C[C@@H]3C2=O)cc1

IC50 [1]: 60 nM
Structure (SMILES): CCCCN1CC2Cc3c([nH]c4ccccc34)C(c3ccc4c(c3)OCO4)N2C1=O (stereo not drawn)

IC50 [6]: 31000 nM
Structure (SMILES): O=C(O)c1cc2c(cn1)[nH]c1ccccc12

IC50 [1]: 40 nM
Structure (SMILES): CCCCN1C(=O)[C@@H]2Cc3c([nH]c4ccccc34)[C@@H](c3ccc(Br)cc3)N2C1=O

IC50 [1]: 3 nM
Structure (SMILES): CCCCN1CC(=O)N2C(Cc3c([nH]c4ccccc34)C2c2ccc3c(c2)OCO3)C1=O (stereo not drawn)

IC50 [1]: 60 nM
Structure (SMILES): CCCCN1CC2Cc3c([nH]c4ccccc34)C(c3ccc(OC)cc3)N2C1=O (stereo not drawn)

IC50 [1]: 40 nM
Structure (SMILES): CCN1C(=O)[C@@H]2Cc3c([nH]c4ccccc34)[C@@H](c3ccc(Br)cc3)N2C1=O

IC50 [1]: 330 nM
Structure (SMILES): CCN1C(=O)[C@@H]2Cc3c([nH]c4ccccc34)[C@@H](c3ccc(Cl)cc3)N2C1=O

IC50 [1]: 0.8 nM
Structure (SMILES): O=C1[C@H]2Cc3c([nH]c4ccccc34)[C@@H](c3ccc4c(c3)OCO4)N2C(=O)CN1[C@@H]1CCN(Cc2ncc[nH]2)C1
